Experimental findings from US20100240642A1, “1H-Indole-2-Carboxylic Acid Derivatives Useful As PPAR Modulators” (SMITHKLINE BEECHAM CORPORATION, priority 2006, published 2010) are described below.

For assay [1], the target named is T1, hPPARγ receptor (Homo sapiens, UniProt P37231).
T1 construct: expressed in transfected cells; host or cells: CV-1 (African Green Monkey kidney, ATCC CCL-70)
T1 sequence (P37231 172-475 isoform P37231-2): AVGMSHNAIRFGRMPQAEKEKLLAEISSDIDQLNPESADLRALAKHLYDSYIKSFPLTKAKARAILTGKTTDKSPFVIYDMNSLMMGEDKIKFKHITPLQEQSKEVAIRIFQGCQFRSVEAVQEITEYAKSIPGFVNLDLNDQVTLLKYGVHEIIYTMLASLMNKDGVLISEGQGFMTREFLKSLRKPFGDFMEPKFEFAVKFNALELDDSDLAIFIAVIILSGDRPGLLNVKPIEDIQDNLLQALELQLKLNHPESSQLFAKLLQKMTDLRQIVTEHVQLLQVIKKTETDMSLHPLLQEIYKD
In words: PPARγ Cell-based luciferase assay. Particulars: CV-1 cells transfected with GAL4-hPPARγ LBD and UAStkLuc; at concentrations of 10^−6 M or less; read-out: agonism of the hPPARγ receptor (activation relative to full agonist rosiglitazone). A digest of the protocol:
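CV-1 cells were transiently transfected with GAL4-DBD/human PPARγ LBD (172-475) and a UAS-tk-firefly luciferase reporter. Cells were plated at 10,000/well in 5% charcoal-stripped FBS medium onto 11-point, 3-fold compound dilutions and incubated overnight at 37 °C. Luminescence was read after Steady-Glo lysis, with activation scored relative to rosiglitazone as full agonist.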

Assay [2] relates to Male Zucker Diabetic Fatty rats. As to the kind of experiment: In vivo evaluation: serum glucose in Zucker Diabetic Fatty rats. More on the design: species or system rat. Particulars: 10 mg/kg once daily by oral gavage, 28 days, percent reduction from vehicle control at day 28 relative to normalization (140 mg/dL). As to the method:
Male Zucker Diabetic Fatty rats were lightly anesthetized with isofluorane gas and bleed by tail vein to obtain postprandial baseline concentrations for serum glucose, serum lipids and insulin. Animals were baseline matched by serum glucose and randomized into vehicle or treatment groups with compound administration by oral gavage beginning at 6.5 weeks of age. Selected compounds were administered once daily at 10 mg/kg in 25 mM N-Methyl-Glucamine with 5% w/v Solutol HS15. After 28 consecutive days of treatment, blood samples were obtained and analyzed for serum glucose. Values in Table 1 for % Glucose reduction represent a summary of the percent reduction from vehicle control animals at day 28 relative to normalization defined in this model as serum glucose levels of 140 mg/dL.

Regarding `CC(C)(C)c1ccc(-c2c(C(=O)O)n(Cc3cc(OCCN4CCOCC4)cc(OCC4CC4)c3)c3ccccc23)cc1` [Example 42, 1-[(3-[(cyclopropylmethyl)oxy]-5-{[2-(4-morpholinyl)ethyl]oxy}phenyl)methyl]-3-[4-(1,1-dimethylethyl)phenyl]-1H-indole-2-carboxylic acid], in assay [1], the Emax lay within 20 to 80%. The “% Glucose Reduction” value in assay [2] amounted to 82%.
`COCCOc1cc(Cn2c(C(=O)O)c(-c3ccc(C(C)(C)C)cc3)c3ccccc32)cc(OCC2CC2)c1` [Example 2, 1-[(3-[(cyclopropylmethyl)oxy]-5-{[2-(methyloxy)ethyl]oxy}phenyl)methyl]-3-[4-(1,1-dimethylethyl)phenyl]-1H-indole-2-carboxylic acid]: the Emax in assay [1] fell in the range of 20 to 80%. Besides, in assay [2], the “% Glucose Reduction” value is given as 96%.
In the case of `CC(C)(C)c1ccc(-c2c(C(=O)O)n(Cc3cccc(-c4ccc(S(C)(=O)=O)cc4)c3)c3ccccc23)cc1` [Example 24, 3-[4-(1,1-dimethylethyl)phenyl]-1-{[4′-(methylsulfonyl)-3-biphenylyl]methyl}-1H-indole-2-carboxylic acid], the Emax in assay [1] lay in the range of 20 to 80%. Besides, the “% Glucose Reduction” value in assay [2] came out at 79%.
Consider `COCCOc1cc(Cn2c(C(=O)O)c(-c3ccc(C(C)(C)C)cc3)c3ccccc32)cc(N2CCOCC2)c1` [Example 68, 3-[4-(1,1-dimethylethyl)phenyl]-1-{[3-{[2-(methyloxy)ethyl]oxy}-5-(4-morpholinyl)phenyl]methyl}-1H-indole-2-carboxylic acid], for which, in assay [1], the Emax fell in the range of 20 to 80%. In addition, the “% Glucose Reduction” value in assay [2] is reported as 95%.
Take `COc1cc(Cn2c(C(=O)O)c(-c3ccc(C(C)(C)C)cc3)c3ccccc32)cc(-c2ccc(C(=O)O)cc2)c1` [Example 18, 1-{[4′-carboxy-5-(methyloxy)-3-biphenylyl]methyl}-3-[4-(1,1-dimethylethyl)phenyl]-1H-indole-2-carboxylic acid]: the Emax in assay [1] was 20 to 80%. Besides, the “% Glucose Reduction” value in assay [2] is 44%.
The matching figures for `Cc1ccc(-c2ccc(C(=O)O)cc2)cc1Cn1c(C(=O)O)c(-c2ccc(C(C)(C)C)cc2)c2ccccc21` [Example 11, 1-[(4′-carboxy-4-methyl-3-biphenylyl)methyl]-3-[4-(1,1-dimethylethyl)phenyl]-1H-indole-2-carboxylic acid]: 20 to 80% and 49%.
